From ChEMBL document CHEMBL1155407, “Synthesis and evaluation of duocarmycin SA analogs incorporating the methyl 1,2,8,8a-tetrahydrocyclopropa[c]oxazolo[2,3-e]indol-4-one-6-carboxylate (COI) alkylation subunit” (Bioorg Med Chem Lett, 2010)
Active and inactive are the calls of the source. No cut-off for these calls is given here.

Experiments:
[1] = test system: L1210; test: Cytotoxicity against mouse L1210 cells; format: functional, cell-based
[2] = test system: Nucleic Acid; test: Alkylation of cell free 32p end labeled double stranded w794 DNA at 10 uM after 48 hrs by PAGE and autoradiography; format: nucleic-acid assay
[3] = test system: Nucleic Acid; test: Alkylation of cell free 32p end labeled double stranded w794 DNA at 100 uM after 48 hrs by PAGE and autoradiography; format: nucleic-acid assay

| Compound | IC50 [1] [nM] | Activity [2] | Activity [3] |
| --- | --- | --- | --- |
| COC(=O)c1nc2c(O)cc3c(c2o1)C(CCl)CN3C(=O)OC(C)(C)C (stereo unspecified) | 550 | – | – |
| COC(=O)c1cc2c([nH]1)C(=O)C=C1N(C(=O)c3cc4cc(OC)c(OC)c(OC)c4[nH]3)C[C@H]3C[C@]123 | – | Active | inactive |
| COC(=O)c1nc2c(O)cc3c(c2o1)C(CCl)CN3C(=O)c1cc2cc(OC)c(OC)c(OC)c2[nH]1 (racemic) | 5.4 | Active | inactive |
